For orientation: melting point means the temperature of the solid-liquid transition. By IC50 is commonly meant the concentration at which inhibition is half-maximal. Read a low IC50 as greater potency.

For data set [1], the target named is T1, Human thrombin (Homo sapiens, UniProt P00734).
T1 construct: purchased Haematologic Technologies Inc
Kind of data set: Thrombin protease inhibition assay, chromogenic substrate S-2238. The settings on record: inhibition of the protease activity of thrombin, Table A. The class given is biochemical. The method, then: Compounds described herein can be assayed, by a variety of methods known in the art and described herein, for inhibition of biological activity, e.g., protease activity, of a variety of proteins, e.g., thrombin.
The thrombin activity reported herein (e.g., Table A) was obtained as follows. […] Thrombin was assayed in buffer containing 0.05 M Tris (pH 7.4), 0.015 M NaCl and 0.01% PEG-8000. The final concentration of enzyme used was 3 nM thrombin. […] All assays were performed in 96-well microtiter plates at room temperature (RT). […] Inhibitor IC50 values were determined by adding test compound as ten point, three-fold serial dilutions in buffer solution, as known in the art. The plate was read at 10 minutes after substrate addition. The IC50 was calculated by plotting the percent (%) inhibition against compound concentration and fitting the data to a constrained four parameter sigmoidal curve, as known in the art.

Data set [2] relates to malignant breast tumors. The note with it: cited from earlier work.

As to `Fc1ccc(CNc2nc(-c3cccnc3)n[nH]2)cc1` [Cmpd 4], the melting point lay within 185 to 186 °C. Consider `CN(C)C(=O)c1n[nH]c(C(=O)Nc2ccccc2Cl)n1` [Cmpd 186, 5-C-(2-chlorobenzene)-3-N,3-N-dimethyl-1H-1,2,4-triazole-3,5-dicarboxamide], for which, in data set [1], the half-maximal inhibitory concentration (IC50) is > 1000 nM. Still for that read-out and setting: to `CNC(=O)c1n[nH]c(C(=O)Nc2ccccc2Cl)n1` [Cmpd 187, 5-C-(2-chlorobenzene)-3-N-methyl-1H-1,2,4-triazole-3,5-dicarboxamide] belongs > 1000 nM. On to `CCCCCCOC(=O)NC(=N)c1ccc(NCc2nc3cc(C(=O)N(CCC(=O)OCC)c4ccccn4)ccc3n2C)cc1` [dabigatran etexilate], for which the “reduction in tumor volume” value in data set [2] (at 4 weeks, treated mice) is 50%. Moreover, in data set [2] (at 4 weeks), the “weight loss in treated mice” value is reported as “no weight loss”. The “reduction of tumor cells in the blood and liver micrometastases” value in data set [2] (mouse, in vivo) is 50-60%.

(Values after patent US10653674B2, “Multisubstituted aromatic compounds as inhibitors of thrombin” (VERSEON CORPORATION, priority 2010, dated 2020).)
